Assay results from PMC12300041, “Tricyclic Isatin Derivatives as Anti-Inflammatory Compounds with High Kinase Binding Affinity” (Molecules, 2025).

Assays:
Test in all cases: KINOMEscan
Assay type in all cases: binding
[1] = target: T1, DRAK2 (Homo sapiens, UniProt O94768)
T1 construct: purchased Eurofins DiscoverX KINOMEscan
In short: (§1)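 Read-out is qPCR of kinase not bound to the test compound, recovered by capture on an immobilized affinity ligand after a 1 h room-temperature binding step. Dissociation constants came from 12 half-log dilutions starting at 33 μM.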

[2] = target: T2, BIKE (Homo sapiens, UniProt Q9NSY1)
T2 construct: purchased Eurofins DiscoverX KINOMEscan
In short: as §1

[3] = target: T3, IKK-α (Homo sapiens, UniProt O15111)
T3 construct: purchased Eurofins DiscoverX KINOMEscan
In short: as §1

[4] = target: T4, CDK4-cyclinD1 (Homo sapiens, UniProt P11802)
T4 construct: purchased Eurofins DiscoverX KINOMEscan
In short: as §1

[5] = target: T5, DYRK2 (Homo sapiens, UniProt Q92630)
T5 construct: purchased Eurofins DiscoverX KINOMEscan
In short: as §1

[6] = target: T6, WNK4 (Homo sapiens, UniProt Q96J92)
T6 construct: purchased Eurofins DiscoverX KINOMEscan
In short: as §1

[7] = target: T7, NLK (Homo sapiens, UniProt Q9UBE8)
T7 construct: purchased Eurofins DiscoverX KINOMEscan
In short: as §1

[8] = target: T8, JNK1 (Homo sapiens, UniProt P45983)
T8 construct: purchased Eurofins DiscoverX KINOMEscan
In short: as §1

[9] = target: T9, JAK1 (JH2domain-pseudokinase) (Homo sapiens, UniProt P23458)
T9 construct: JAK1 (JH2domain-pseudokinase); purchased Eurofins DiscoverX KINOMEscan
In short: as §1

[10] = target: T10, STK35 (Homo sapiens, UniProt Q8TDR2)
T10 construct: purchased Eurofins DiscoverX KINOMEscan
In short: as §1

[11] = target: T11, PKAC-α (Homo sapiens, UniProt P17612)
T11 construct: purchased Eurofins DiscoverX KINOMEscan
In short: as §1

[12] = target: T12, FES (Homo sapiens, UniProt P07332)
T12 construct: purchased Eurofins DiscoverX KINOMEscan
In short: as §1

[13] = target: T13, ABL1-P (Homo sapiens, UniProt P00519)
T13 construct: purchased Eurofins DiscoverX KINOMEscan
In short: as §1

[14] = target: T14, CAMK4 (Homo sapiens, UniProt Q16566)
T14 construct: purchased Eurofins DiscoverX KINOMEscan
In short: as §1

[15] = target: T15, EPHA3 (Homo sapiens, UniProt P29320)
T15 construct: purchased Eurofins DiscoverX KINOMEscan
In short: as §1

[16] = target: T16, RPS6KA4 (Kin. Dom.2-C-term.) (Homo sapiens, UniProt O75676)
T16 construct: RPS6KA4 (Kin. Dom.2-C-term.); purchased Eurofins DiscoverX KINOMEscan
In short: as §1

[17] = target: T17, PRP4 (Homo sapiens, UniProt Q13523)
T17 construct: purchased Eurofins DiscoverX KINOMEscan
In short: as §1

[18] = target: T18, NEK7 (Homo sapiens, UniProt Q8TDX7)
T18 construct: purchased Eurofins DiscoverX KINOMEscan
In short: as §1

[19] = target: T19, CAMK1D (Homo sapiens, UniProt Q8IU85)
T19 construct: purchased Eurofins DiscoverX KINOMEscan
In short: as §1

[20] = target: T20, HCK (Homo sapiens, UniProt P08631)
T20 construct: purchased Eurofins DiscoverX KINOMEscan
In short: as §1

[21] = target: T21, MLK2 (Homo sapiens, UniProt Q02779)
T21 construct: purchased Eurofins DiscoverX KINOMEscan
In short: as §1

[22] = target: T22, LRRK2 (Homo sapiens, UniProt Q5S007)
T22 construct: purchased Eurofins DiscoverX KINOMEscan
In short: as §1

[23] = target: T23, ABL1 (F317I)-P (Homo sapiens, UniProt P00519, F317I)
T23 construct: purchased Eurofins DiscoverX KINOMEscan
In short: as §1

[24] = target: T24, PRKD3 (Homo sapiens, UniProt O94806)
T24 construct: purchased Eurofins DiscoverX KINOMEscan
In short: as §1

[25] = target: T25, ERBB2 (Homo sapiens, UniProt P04626)
T25 construct: purchased Eurofins DiscoverX KINOMEscan
In short: as §1

[26] = target: T26, CDK7 (Homo sapiens, UniProt P50613)
T26 construct: purchased Eurofins DiscoverX KINOMEscan
In short: as §1

[27] = target: T27, PAK7 (Homo sapiens, UniProt Q9P286)
T27 construct: purchased Eurofins DiscoverX KINOMEscan
In short: as §1

[28] = target: T28, NEK4 (Homo sapiens, UniProt P51957)
T28 construct: purchased Eurofins DiscoverX KINOMEscan
In short: as §1

[29] = target: T29, KIT (V559D) (Homo sapiens, UniProt P10721, V559D)
T29 construct: purchased Eurofins DiscoverX KINOMEscan
In short: as §1

[30] = target: T30, CDK9 (Homo sapiens, UniProt P50750)
T30 construct: purchased Eurofins DiscoverX KINOMEscan
In short: as §1

[31] = target: T31, ULK1 (Homo sapiens, UniProt O75385)
T31 construct: purchased Eurofins DiscoverX KINOMEscan
In short: as §1

[32] = target: T32, JNK2 (Homo sapiens, UniProt P45984)
T32 construct: purchased Eurofins DiscoverX KINOMEscan
In short: as §1

[33] = target: T33, CIT (Homo sapiens, UniProt O14578)
T33 construct: purchased Eurofins DiscoverX KINOMEscan
In short: as §1

[34] = target: T34, MERTK (Homo sapiens, UniProt Q12866)
T34 construct: purchased Eurofins DiscoverX KINOMEscan
In short: as §1

[35] = target: T35, PAK1 (Homo sapiens, UniProt Q13153)
T35 construct: purchased Eurofins DiscoverX KINOMEscan
In short: as §1

[36] = target: T36, MEK3 (Homo sapiens, UniProt P46734)
T36 construct: purchased Eurofins DiscoverX KINOMEscan
In short: as §1

[37] = target: T37, EGFR (T790M) (Homo sapiens, UniProt P00533, T790M)
T37 construct: purchased Eurofins DiscoverX KINOMEscan
In short: as §1

[38] = target: T38, LKB1 (Homo sapiens, UniProt Q15831)
T38 construct: purchased Eurofins DiscoverX KINOMEscan
In short: as §1

[39] = target: T39, NEK11 (Homo sapiens, UniProt Q8NG66)
T39 construct: purchased Eurofins DiscoverX KINOMEscan
In short: as §1

T23 sequence (P00519 whole entry F317I): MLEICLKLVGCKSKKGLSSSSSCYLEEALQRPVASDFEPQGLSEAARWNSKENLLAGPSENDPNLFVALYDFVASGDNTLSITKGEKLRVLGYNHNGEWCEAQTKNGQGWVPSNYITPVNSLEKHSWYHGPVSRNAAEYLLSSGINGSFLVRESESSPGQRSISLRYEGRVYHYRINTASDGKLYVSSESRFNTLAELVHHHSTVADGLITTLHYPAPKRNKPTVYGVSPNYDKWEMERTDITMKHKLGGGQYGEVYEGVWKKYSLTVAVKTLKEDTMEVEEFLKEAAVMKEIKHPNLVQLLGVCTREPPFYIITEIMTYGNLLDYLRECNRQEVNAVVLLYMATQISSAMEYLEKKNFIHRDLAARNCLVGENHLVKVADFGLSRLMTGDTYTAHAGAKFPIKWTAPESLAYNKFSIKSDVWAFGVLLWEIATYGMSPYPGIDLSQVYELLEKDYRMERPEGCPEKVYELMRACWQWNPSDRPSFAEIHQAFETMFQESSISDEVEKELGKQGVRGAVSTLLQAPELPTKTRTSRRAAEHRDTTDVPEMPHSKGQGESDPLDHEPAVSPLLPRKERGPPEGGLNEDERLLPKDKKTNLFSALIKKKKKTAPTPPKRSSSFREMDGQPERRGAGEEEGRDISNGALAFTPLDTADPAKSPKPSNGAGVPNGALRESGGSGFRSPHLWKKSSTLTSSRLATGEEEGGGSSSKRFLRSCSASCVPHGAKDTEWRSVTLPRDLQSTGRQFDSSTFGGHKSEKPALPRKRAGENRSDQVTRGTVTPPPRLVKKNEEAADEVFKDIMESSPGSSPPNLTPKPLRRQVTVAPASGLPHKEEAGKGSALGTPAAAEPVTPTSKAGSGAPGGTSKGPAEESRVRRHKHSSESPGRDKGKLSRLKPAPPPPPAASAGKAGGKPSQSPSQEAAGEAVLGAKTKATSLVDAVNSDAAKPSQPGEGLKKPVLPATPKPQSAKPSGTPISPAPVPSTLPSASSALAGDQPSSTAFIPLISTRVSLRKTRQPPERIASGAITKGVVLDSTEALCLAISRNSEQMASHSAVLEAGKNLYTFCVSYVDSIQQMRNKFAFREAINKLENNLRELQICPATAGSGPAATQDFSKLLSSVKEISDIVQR
T20 sequence (P08631 whole entry): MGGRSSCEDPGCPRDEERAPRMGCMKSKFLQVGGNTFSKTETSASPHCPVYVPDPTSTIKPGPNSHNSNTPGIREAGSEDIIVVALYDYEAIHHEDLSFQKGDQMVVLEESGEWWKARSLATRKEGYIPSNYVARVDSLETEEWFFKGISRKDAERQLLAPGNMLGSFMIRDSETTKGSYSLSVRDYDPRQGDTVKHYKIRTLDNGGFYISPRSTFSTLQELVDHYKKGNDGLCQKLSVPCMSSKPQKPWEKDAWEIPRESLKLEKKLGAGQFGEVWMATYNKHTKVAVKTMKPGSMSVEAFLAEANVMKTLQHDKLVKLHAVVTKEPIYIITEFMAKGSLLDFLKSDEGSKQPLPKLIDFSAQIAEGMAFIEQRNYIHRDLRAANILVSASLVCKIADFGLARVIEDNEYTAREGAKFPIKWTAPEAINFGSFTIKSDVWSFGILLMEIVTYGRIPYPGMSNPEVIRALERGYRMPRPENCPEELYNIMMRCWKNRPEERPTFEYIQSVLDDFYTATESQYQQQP
T28 sequence (P51957 whole entry): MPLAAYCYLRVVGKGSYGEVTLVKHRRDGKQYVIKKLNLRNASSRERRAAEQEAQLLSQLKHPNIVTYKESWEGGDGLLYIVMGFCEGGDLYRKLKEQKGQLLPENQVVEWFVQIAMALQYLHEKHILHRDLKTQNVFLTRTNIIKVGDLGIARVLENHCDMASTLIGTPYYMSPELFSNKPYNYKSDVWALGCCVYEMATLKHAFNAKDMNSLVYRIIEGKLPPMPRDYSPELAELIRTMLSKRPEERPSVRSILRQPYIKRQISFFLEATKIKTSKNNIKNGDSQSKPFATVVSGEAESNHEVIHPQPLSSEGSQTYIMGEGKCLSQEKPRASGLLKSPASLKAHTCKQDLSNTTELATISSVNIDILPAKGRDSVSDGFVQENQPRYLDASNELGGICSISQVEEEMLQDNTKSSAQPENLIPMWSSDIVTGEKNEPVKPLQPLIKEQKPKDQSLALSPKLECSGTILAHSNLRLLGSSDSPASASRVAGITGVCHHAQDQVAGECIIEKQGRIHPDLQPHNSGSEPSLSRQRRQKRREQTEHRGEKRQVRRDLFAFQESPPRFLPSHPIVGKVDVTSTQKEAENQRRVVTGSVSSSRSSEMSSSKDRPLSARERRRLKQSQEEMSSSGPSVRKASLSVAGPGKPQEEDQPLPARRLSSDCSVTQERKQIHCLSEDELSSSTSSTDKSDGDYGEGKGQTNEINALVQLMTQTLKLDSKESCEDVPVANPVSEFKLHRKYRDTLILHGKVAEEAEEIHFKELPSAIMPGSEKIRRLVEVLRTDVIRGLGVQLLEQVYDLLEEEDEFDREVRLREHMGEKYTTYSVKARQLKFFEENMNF
T35 sequence (Q13153 whole entry): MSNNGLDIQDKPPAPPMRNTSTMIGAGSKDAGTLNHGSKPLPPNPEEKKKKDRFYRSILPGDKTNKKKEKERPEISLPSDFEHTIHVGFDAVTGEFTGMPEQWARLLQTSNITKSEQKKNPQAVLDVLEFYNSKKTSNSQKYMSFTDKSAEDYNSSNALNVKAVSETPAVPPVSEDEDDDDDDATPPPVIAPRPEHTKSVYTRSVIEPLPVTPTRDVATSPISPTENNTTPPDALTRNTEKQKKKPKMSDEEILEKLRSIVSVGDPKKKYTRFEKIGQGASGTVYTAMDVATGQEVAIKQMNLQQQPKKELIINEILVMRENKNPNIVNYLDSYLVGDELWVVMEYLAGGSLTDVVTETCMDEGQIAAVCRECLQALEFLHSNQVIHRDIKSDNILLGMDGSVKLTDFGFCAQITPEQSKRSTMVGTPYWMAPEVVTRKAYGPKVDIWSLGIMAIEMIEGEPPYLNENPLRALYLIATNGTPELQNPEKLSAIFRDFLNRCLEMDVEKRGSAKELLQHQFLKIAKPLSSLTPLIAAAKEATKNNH
T21 sequence (Q02779 whole entry): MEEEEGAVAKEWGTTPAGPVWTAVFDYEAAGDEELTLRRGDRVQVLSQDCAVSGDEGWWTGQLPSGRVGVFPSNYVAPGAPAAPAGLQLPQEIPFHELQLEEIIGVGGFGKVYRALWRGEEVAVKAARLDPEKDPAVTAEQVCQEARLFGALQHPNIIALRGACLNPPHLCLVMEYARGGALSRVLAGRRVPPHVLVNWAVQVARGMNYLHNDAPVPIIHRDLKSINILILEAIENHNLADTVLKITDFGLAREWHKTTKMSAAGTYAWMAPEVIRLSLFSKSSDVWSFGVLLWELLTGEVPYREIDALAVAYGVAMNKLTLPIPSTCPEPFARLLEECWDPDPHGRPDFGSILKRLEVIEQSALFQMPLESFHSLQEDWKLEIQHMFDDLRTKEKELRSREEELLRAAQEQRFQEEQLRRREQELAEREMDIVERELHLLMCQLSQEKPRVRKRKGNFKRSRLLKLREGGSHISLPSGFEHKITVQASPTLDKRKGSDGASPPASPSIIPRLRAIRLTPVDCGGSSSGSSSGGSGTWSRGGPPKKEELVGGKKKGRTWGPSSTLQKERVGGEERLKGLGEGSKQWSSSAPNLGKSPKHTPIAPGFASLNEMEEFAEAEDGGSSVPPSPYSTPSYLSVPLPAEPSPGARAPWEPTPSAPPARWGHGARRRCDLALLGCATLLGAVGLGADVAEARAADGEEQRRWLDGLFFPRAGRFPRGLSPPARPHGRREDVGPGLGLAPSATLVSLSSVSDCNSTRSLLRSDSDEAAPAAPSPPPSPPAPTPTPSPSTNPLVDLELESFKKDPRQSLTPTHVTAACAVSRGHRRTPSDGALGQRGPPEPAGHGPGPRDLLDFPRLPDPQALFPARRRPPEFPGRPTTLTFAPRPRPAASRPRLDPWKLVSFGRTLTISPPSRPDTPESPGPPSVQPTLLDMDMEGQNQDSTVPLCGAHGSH
T26 sequence (P50613 whole entry): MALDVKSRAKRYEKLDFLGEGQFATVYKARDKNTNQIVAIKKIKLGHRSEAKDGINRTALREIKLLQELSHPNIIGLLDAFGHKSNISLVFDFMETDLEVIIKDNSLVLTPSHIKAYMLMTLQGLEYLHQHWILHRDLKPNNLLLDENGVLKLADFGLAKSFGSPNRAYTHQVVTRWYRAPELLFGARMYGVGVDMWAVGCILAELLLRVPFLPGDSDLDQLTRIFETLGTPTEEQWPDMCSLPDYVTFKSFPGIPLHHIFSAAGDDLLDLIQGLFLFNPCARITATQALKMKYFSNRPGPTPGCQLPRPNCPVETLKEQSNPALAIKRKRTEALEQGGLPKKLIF
T10 sequence (Q8TDR2 whole entry): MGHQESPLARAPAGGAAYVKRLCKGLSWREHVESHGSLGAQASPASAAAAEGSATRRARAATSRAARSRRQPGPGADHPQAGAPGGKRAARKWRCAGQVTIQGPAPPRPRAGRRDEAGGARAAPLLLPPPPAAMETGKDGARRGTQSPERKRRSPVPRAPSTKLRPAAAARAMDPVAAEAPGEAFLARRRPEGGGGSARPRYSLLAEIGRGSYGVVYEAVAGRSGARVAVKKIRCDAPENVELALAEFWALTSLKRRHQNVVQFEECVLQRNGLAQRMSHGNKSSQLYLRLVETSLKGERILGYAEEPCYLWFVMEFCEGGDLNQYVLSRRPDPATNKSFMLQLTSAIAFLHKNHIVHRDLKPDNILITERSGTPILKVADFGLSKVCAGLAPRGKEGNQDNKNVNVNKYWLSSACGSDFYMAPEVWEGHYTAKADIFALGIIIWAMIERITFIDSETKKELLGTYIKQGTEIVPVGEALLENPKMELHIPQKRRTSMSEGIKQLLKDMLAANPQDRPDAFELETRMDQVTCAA
T13 sequence (P00519 whole entry): as the sequence (P00519 whole entry F317I) above, with I317F counted along it

`O=C1Nc2c(cc([N+](=O)[O-])c3c2CCCC3)C1=NO` [Compound 5d, 3-(Hydroxyimino)-5-nitro-1,3,6,7,8,9-hexahydro-2H-benzo[g]indol-2-one] was tested, and the inhibition at 10 µM [1] was 78%, the inhibition at 10 µM [2] was 75% and the inhibition at 10 µM [3] was 52%. For the same compound, the inhibition at 10 µM [4] was 9%, the inhibition at 10 µM [5] was 81% and the inhibition at 10 µM [6] was 1%. The inhibition at 10 µM [7] was 11%, the inhibition at 10 µM [8] was 76% and the inhibition at 10 µM [9] was 89%. For the same compound, the inhibition at 10 µM [10] was 1%, the inhibition at 10 µM [11] was 0% and the inhibition at 10 µM [12] was 0%. For the same compound, the inhibition at 10 µM [13] was 46%, the inhibition at 10 µM [14] was 7% and the inhibition at 10 µM [15] was 45%. For the same compound, the inhibition at 10 µM [16] was 89.3%, the inhibition at 10 µM [17] was 38% and the inhibition at 10 µM [18] was 26%. It also gave an inhibition at 10 µM [19] of 65%, an inhibition at 10 µM [20] of 20% and an inhibition at 10 µM [21] of 4%. For the same compound, the inhibition at 10 µM [22] was 96%, the inhibition at 10 µM ([23]; first of two lines printed ABL1 (F317I)-P) was 7% and the inhibition at 10 µM ([23]; second of two lines printed ABL1 (F317I)-P) was 0%. The inhibition at 10 µM [24] was 77%, the inhibition at 10 µM [25] was 29% and the inhibition at 10 µM [26] was 95.8%. It also gave an inhibition at 10 µM [27] of 55%, an inhibition at 10 µM [28] of 1% and an inhibition at 10 µM [29] of 0%. It also gave an inhibition at 10 µM [30] of 0%, an inhibition at 10 µM [31] of 15% and an inhibition at 10 µM [32] of 49%. The inhibition at 10 µM [33] was 92.8%, the inhibition at 10 µM [34] was 4% and the inhibition at 10 µM [35] was 0%. For the same compound, the inhibition at 10 µM [36] was 94%, the inhibition at 10 µM [37] was 0% and the inhibition at 10 µM [38] was 0%. It also gave an inhibition at 10 µM [39] of 46%.
